This note sets out measurements from article PMC3834219 (Plant molecular biology, 2013).

The assay has as its target T1, GmPP2C1 (Glycine max, UniProt K7LYY2).
T1 sequence (K7LYY2 1-536): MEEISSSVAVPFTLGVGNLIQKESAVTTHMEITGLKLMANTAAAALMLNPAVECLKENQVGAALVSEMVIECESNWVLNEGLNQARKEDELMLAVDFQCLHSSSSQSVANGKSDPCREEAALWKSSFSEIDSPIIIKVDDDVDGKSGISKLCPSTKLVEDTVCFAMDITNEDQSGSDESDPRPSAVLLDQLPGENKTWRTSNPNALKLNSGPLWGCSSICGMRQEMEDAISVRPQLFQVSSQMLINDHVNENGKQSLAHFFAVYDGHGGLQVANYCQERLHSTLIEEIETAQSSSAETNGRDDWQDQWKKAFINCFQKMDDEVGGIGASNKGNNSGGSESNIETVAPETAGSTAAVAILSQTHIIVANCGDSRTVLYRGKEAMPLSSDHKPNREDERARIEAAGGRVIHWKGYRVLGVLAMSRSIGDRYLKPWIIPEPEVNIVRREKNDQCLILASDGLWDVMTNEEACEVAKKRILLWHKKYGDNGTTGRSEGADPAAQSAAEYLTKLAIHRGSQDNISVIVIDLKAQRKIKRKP
Description: pNPP hydrolysis at […] nm. Type of assay: biochemical. To be noted: 1 μM His-GmPP2C1, 50 mM pNPP, pH 7.5, 25 mM Mg(OAc)2, 2 mM MnCl2.

On to `O=[N+]([O-])c1ccc(OP(=O)(O)O)cc1` [p-nitrophenyl phosphate], for which the “pNPP hydrolysis at 405 nm” value is on record as “GmPP2C1 phosphatase activity was measured using the colorimetric substrate p-nitrophenyl phosphate (pNPP, Sigma)”.
